# What was measured:
# Settings in all cases: incubation time: 72 h
# BT-474 [1] = test: normalised response (% of control), CellTox Green; higher = less cell death (100 = DMSO, 0 = benzethonium chloride kill control)
# How it was run: (§1)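 For each plate, 0.1 % DMSO was set to 100 and a positive kill control to 0. Breast cancer cell lines (20 µl suspension) were seeded into 384-well plates already holding compound at 5 concentrations in 10-fold steps over a 10,000-fold range chosen per compound, and incubated for 72 h. CellTox Green fluorescence at 485/520 nm was read before CellTiter-Glo luminescence, which followed 10 min at room temperature. Each value is the normalised signal at one concentration.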
# BT-549 [2] = test: as above
# How it was run: as §1
# CAL-120 [3] = test: as above
# How it was run: as §1
# CAL-148 [4] = test: as above
# How it was run: as §1
# CAL-51 [5] = test: as above
# How it was run: as §1
# CAL-85-1 [6] = test: as above
# How it was run: as §1
# DU-4475 [7] = test: as above
# How it was run: as §1
# HCC1143 [8] = test: as above
# How it was run: as §1
# HCC1599 [9] = test: as above
# How it was run: as §1
# HCC1937 [10] = test: as above
# How it was run: as §1
# HDQ-P1 [11] = test: as above
# How it was run: as §1
# Hs578T [12] = test: as above
# How it was run: as §1
# MCF-10A [13] = test: as above
# How it was run: as §1
# MDA-MB-231 [14] = test: as above
# How it was run: as §1
# MDA-MB-453 [15] = test: as above
# How it was run: as §1
# MDA-MB-468 [16] = test: as above
# How it was run: as §1
# MFM-223 [17] = test: as above
# How it was run: as §1
# BT-474 [18] = test: normalised response (% of control), CellTiter-Glo; higher = more viable cells (100 = DMSO, 0 = benzethonium chloride kill control)
# Protocol: (§2)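 DSRT, 72 h incubation, CellTox Green / CellTiter-Glo readout. Signal is normalised to DMSO and benzethonium chloride controls. Value is the normalised response at dose 3.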
# BT-549 [19] = test: as above
# Protocol: as §2
# CAL-120 [20] = test: as above
# Protocol: as §2
# CAL-148 [21] = test: as above
# Protocol: as §2
# CAL-51 [22] = test: as above
# Protocol: as §2
# CAL-85-1 [23] = test: as above
# Protocol: as §2
# DU-4475 [24] = test: as above
# Protocol: as §2
# HCC1143 [25] = test: as above
# Protocol: as §2
# HCC1599 [26] = test: as above
# Protocol: as §2
# HCC1937 [27] = test: as above
# Protocol: as §2
# HDQ-P1 [28] = test: as above
# Protocol: as §2
# Hs578T [29] = test: as above
# Protocol: as §2
# MCF-10A [30] = test: as above
# Protocol: as §2
# MDA-MB-231 [31] = test: as above
# Protocol: as §2
# MDA-MB-436 [32] = test: as above
# Protocol: as §2
# MDA-MB-453 [33] = test: as above
# Protocol: as §2
# MDA-MB-468 [34] = test: as above
# Protocol: as §2
# MFM-223 [35] = test: as above
# Protocol: as §2
# SK-BR-3 = test: as above
# Protocol: as §2
# MDA-MB-436 [36] = test: normalised response (% of control), CellTox Green; higher = less cell death (100 = DMSO, 0 = benzethonium chloride kill control)
# How it was run: as §1
Structure (SMILES),normalised response (BT-474 [1]),normalised response (BT-549 [2]),normalised response (CAL-120 [3]),normalised response (CAL-148 [4]),normalised response (CAL-51 [5]),normalised response (CAL-85-1 [6]),normalised response (DU-4475 [7]),normalised response (HCC1143 [8]),normalised response (HCC1599 [9]),normalised response (HCC1937 [10]),normalised response (HDQ-P1 [11]),normalised response (Hs578T [12]),normalised response (MCF-10A [13]),normalised response (MDA-MB-231 [14]),normalised response (MDA-MB-453 [15]),normalised response (MDA-MB-468 [16]),normalised response (MFM-223 [17]),normalised response (BT-474 [18]),normalised response (BT-549 [19]),normalised response (CAL-120 [20]),normalised response (CAL-148 [21]),normalised response (CAL-51 [22]),normalised response (CAL-85-1 [23]),normalised response (DU-4475 [24]),normalised response (HCC1143 [25]),normalised response (HCC1599 [26]),normalised response (HCC1937 [27]),normalised response (HDQ-P1 [28]),normalised response (Hs578T [29]),normalised response (MCF-10A [30]),normalised response (MDA-MB-231 [31]),normalised response (MDA-MB-436 [32]),normalised response (MDA-MB-453 [33]),normalised response (MDA-MB-468 [34]),normalised response (MFM-223 [35]),normalised response (SK-BR-3),normalised response (MDA-MB-436 [36])
O=C(O)CCCCC(CCSCc1ccccc1)SCc1ccccc1 (centres undefined) [CPI-613] (100 nM),93.3%,96.5%,102%,104%,75.1%,104%,101%,73.1%,95.4%,103%,107%,105%,104%,51.4%,101%,122%,64.3%,106%,105%,98.9%,108%,61.4%,96.4%,101%,106%,114%,101%,99%,99.6%,107%,107%,101%,104%,102%,106%,104%,–
Nc1ccccc1NC(=O)c1ccc(CNC(=O)OCc2cccnc2)cc1 [Entinostat] (100 nM),100%,110%,97.4%,104%,101%,103%,100%,67.2%,96.6%,101%,107%,109%,–,103%,101%,105%,99.3%,94.8%,115%,98.2%,104%,76.1%,112%,105%,103%,96.9%,94%,104%,102%,108%,98.6%,102%,103%,96.8%,104%,107%,80.2%
CC[C@H](Nc1ncnc2[nH]cnc12)c1nc2cccc(F)c2c(=O)n1-c1ccccc1 [GS-1101] (100 nM),93%,105%,102%,102%,93.3%,93.9%,97.6%,107%,94%,87.8%,105%,94%,–,84.8%,100%,103%,78%,92.7%,95.1%,94.6%,96.1%,93.3%,90.4%,102%,98.5%,93%,90.8%,93.1%,96.8%,84.1%,92%,90%,84.8%,86.8%,91.9%,85.2%,80.1%
N#Cc1ccc(C(c2ccc(C#N)cc2)n2cncn2)cc1 [Letrozole] (100 nM),93.5%,96.3%,91.1%,87.3%,103%,114%,101%,108%,102%,83.5%,53.6%,75.3%,105%,79%,100%,–,94.5%,95.5%,104%,99.8%,97.2%,104%,103%,102%,104%,95.9%,94.2%,96.7%,105%,103%,101%,105%,101%,94.5%,106%,102%,–
Nc1nc2[nH]cc(CCc3ccc(C(=O)N[C@@H](CCC(=O)O)C(=O)O)cc3)c2c(=O)[nH]1 [Pemetrexed] (100 nM),96.2%,96.6%,98%,99.7%,88.1%,103%,97.7%,–,91.2%,88.5%,102%,103%,103%,87.1%,104%,93%,90.4%,88.6%,104%,105%,93.2%,66.6%,61%,95%,103%,72.1%,75.7%,92.3%,28.8%,92.8%,96.8%,80.9%,98.1%,80.4%,95.2%,63.2%,58.9%
